This passage reports inhibition and CC50 results from patent US9789089B2 (Gilead Sciences, Inc., priority 2013, dated 2017).

The test system of data set [1] is HIV-IIIb. The data set can be described thus: Test A: Antiviral Assay in MT4 Cells. In kind it is cell-based, HIV-1. To be noted: read-out: % inhibition at 6 μM. How it is done:
Test A: Antiviral Assay in MT4 Cells
(§1) For the antiviral assay, 40 μL of 1× test concentration of 3-fold serially diluted compound in culture medium with 10% FBS was added to each well of a 384-well plate (10 concentrations) in quadruplicate. MT-4 cells were next mixed with HIV-IIIb at an m.o.i of 0.003 for 1 hour, after which time 35 μL of virus/cell mixture (2000 cells) was immediately added to each well containing 40 μL of diluted compound. The plates were then incubated at 37° C. for 5 days. After 5 days of incubation, 25 μl of 2× concentrated CellTiter-Glo™ Reagent (catalog #G7571, Promega Biosciences, Inc., Madison, Wis.) was added to each well containing MT-4 cells. Cell lysis was carried out by incubating at room temperature for 10 min and then chemiluminescence was read.

Data set [2] is described as follows: Test B: Cytotoxicity assay. In kind it is cell-based. The following applies: human, uninfected MT-4 cells, same protocol as Test A, CellTiter-Glo. How it is done: as §1
Test B:Cytotoxicity assay
Compound cytotoxicity and the corresponding CC50 values was determined using the same protocol as described in the antiviral assay (Test A) except that uninfected cells were used.
A general note: In ATP-based viability assays light output follows the ATP content of the culture.

The mark [3] stands for this setting: Human immunodeficiency virus 1, IIIB, MT4, 120 h.
[4] abbreviates: Human immunodeficiency virus 1, MT4, 120 h, percent inhibition of virus-induced cell killing at 6 μM drug concentration, from the dose response curve, MT-4 cells infected with HIV-IIIb, 5 days.

A word on the inhibition: it is the relative decrease from the control value, in per cent. One may read the CC50 as the concentration giving 50% cytotoxicity. High values mean lower toxicity to the cells, low ones greater toxicity to the cells.

Like-named read-outs stand apart in the source and are kept apart here. A value given as a limit tells only on which side of the number the result lay.

Consider `COc1ccc(-n2ccnc2[C@H](Cc2cc(F)cc(F)c2)NC(=O)Cn2nc(C(F)(F)F)c3c2CCCC3)cc1` [Compound 5F, (S)—N-(2-(3,5-difluorophenyl)-1-(1-(4-methoxyphenyl)-1H-imidazol-2-yl)ethyl)-2-(3-(trifluoromethyl)-4,5,6,7-tetrahydro-1H-indazol-1-yl)acetamide], for which the inhibition at 6 µM in data set [1] (setting [3]) was 79%. Besides, in data set [2], half-maximal cytotoxicity (CC50 at 5 days) was put at 13.5 µM. As for `Cn1cnc(C(Cc2cc(F)cc(F)c2)NC(=O)Cc2c[nH]c3ccc(F)cc23)c1-c1ccc(Cl)cc1` (stereo not shown) [Compound 29G, N-(1-(5-(4-chlorophenyl)-1-methyl-1H-imidazol-4-yl)-2-(3,5-difluorophenyl)ethyl)-2-(5-fluoro-1H-indol-3-yl)acetamide], in data set [1] (setting [3]), the inhibition at 6 µM turned out to be 44%. Further, in data set [2], half-maximal cytotoxicity (CC50 at 5 days) was put at 10.8 µM. With `Cc1nnc(C(Cc2ccccc2)NC(=O)Cn2nc(C(F)(F)F)c3c2CCCC3)n1-c1ccccc1` (stereo not shown) [Compound 11, N-(1-(5-methyl-4-phenyl-4H-1,2,4-triazol-3-yl)-2-phenylethyl)-2-(3-(trifluoromethyl)-4,5,6,7-tetrahydro-1H-indazol-1-yl)acetamide], the inhibition at 6 µM in data set [1] (setting [4]) amounted to 76%. This compound had a cytotoxic concentration (CC50) at 5 days in data set [2] of more than 53 µM.

On to `COc1ccc(-n2ccnc2[C@H](Cc2cc(F)cc(F)c2)NC(=O)Cc2c[nH]c3ccc(O)cc23)cc1` [Compound 7, (S)—N-(2-(3,5-difluorophenyl)-1-(1-(4-methoxyphenyl)-1H-imidazol-2-yl)ethyl)-2-(5-hydroxy-1H-indol-3-yl)acetamide], for which, in data set [1] (setting [3]), the inhibition at 6 µM came to 121%. Consider `O=C(Cc1c[nH]c2ccc(O)cc12)N[C@H](Cc1cc(F)cc(F)c1)c1nocc1-c1ccc(Cl)cc1` [Compound 28B, (R)—N-(1-(4-(4-chlorophenyl)isoxazol-3-yl)-2-(3,5-difluorophenyl)ethyl)-2-(5-hydroxy-1H-indol-3-yl)acetamide], for which the inhibition at 6 µM in data set [1] (setting [3]) was 3%. As to `O=C(Cc1c[nH]c2ccc(F)cc12)N[C@@H](Cc1cc(F)cc(F)c1)c1nocc1-c1ccc(Cl)cc1` [Compound 25I, (S)—N-(1-(4-(4-chlorophenyl)isoxazol-3-yl)-2-(3,5-difluorophenyl)ethyl)-2-(5-fluoro-1H-indol-3-yl)acetamide], in data set [1] (setting [4]), the inhibition at 6 µM came out at 68%. For the same compound, in data set [2], the cytotoxic concentration (CC50) at 5 days amounted to 9.89 µM.

As for `CC(C)CCn1ccnc1[C@H](Cc1ccccc1)NC(=O)Cn1nc(C(F)(F)F)c2c1CCCC2` [Compound 2, (S)—N-(1-(1-isopentyl-1H-imidazol-2-yl)-2-phenylethyl)-2-(3-(trifluoromethyl)-4,5,6,7-tetrahydro-1H-indazol-1-yl)acetamide], the inhibition at 6 µM in data set [1] (setting [4]) came out at 6%. The compound also displayed a CC50 at 5 days in data set [2] of 27.8 µM. For `O=C(Cc1c[nH]c2ccc(F)cc12)N[C@@H](Cc1ccccc1)c1nc(-c2ccccc2)no1` [Compound 18B, (S)-2-(5-fluoro-1H-indol-3-yl)-N-(2-phenyl-1-(3-phenyl-1,2,4-oxadiazol-5-yl)ethyl)acetamide], the inhibition at 6 µM in data set [1] (setting [3]) worked out at 4%. Also, the CC50 at 5 days in data set [2] is more than 53 µM.

Consider `COc1ccccc1Cn1ccnc1[C@H](Cc1ccccc1)NC(=O)Cc1c[nH]c2ccc(O)cc12` [Compound 3C, (S)-2-(5-hydroxy-1H-indol-3-yl)-N-(1-(1-(2-methoxybenzyl)-1H-imidazol-2-yl)-2-phenylethyl)acetamide], for which the inhibition at 6 µM in data set [1] (setting [3]) stood at 19%. This compound yielded a CC50 at 5 days in data set [2] of 37.1 µM.

Consider `O=C(Cn1nc(C(F)(F)F)c2c1CCCC2)NC(Cc1cc(F)cc(F)c1)c1ncoc1-c1ccc(Cl)cc1` (stereo not shown) [Compound 36, N-(1-(5-(4-chlorophenyl)oxazol-4-yl)-2-(3,5-difluorophenyl)ethyl)-2-(3-(trifluoromethyl)-4,5,6,7-tetrahydro-1H-indazol-1-yl)acetamide], for which the inhibition at 6 µM in data set [1] (setting [3]) amounted to 0%. The same compound displayed a CC50 at 5 days in data set [2] of 16.3 µM. Consider `Cc1nc(-c2ccccc2)c(C(Cc2ccccc2)NC(=O)Cc2c[nH]c3ccc(O)cc23)s1` (stereo not shown) [Compound 15C, 2-(5-hydroxy-1H-indol-3-yl)-N-(1-(2-methyl-4-phenylthiazol-5-yl)-2-phenylethyl)acetamide], for which the inhibition at 6 µM in data set [1] (setting [4]) is 0%. In data set [2], the CC50 at 5 days was determined as 35 µM. In the same order, the values of `Cn1cnc(C(Cc2cc(F)cc(F)c2)NC(=O)Cn2nc(C(F)(F)F)c3c2CCCC3)c1-c1ccc(Cl)cc1` (stereo not shown) [Compound 30, N-(1-(5-(4-chlorophenyl)-1-methyl-1H-imidazol-4-yl)-2-(3,5-difluorophenyl)ethyl)-2-(3-(trifluoromethyl)-4,5,6,7-tetrahydro-1H-indazol-1-yl)acetamide] are 69% and 11 µM.

`Cc1cc2ncn(CC(=O)NC(Cc3cc(F)cc(F)c3)c3cnc(-c4ccc(Cl)cc4)o3)c2cc1C` (stereo not shown) [Compound 23, N-(1-(2-(4-chlorophenyl)oxazol-5-yl)-2-(3,5-difluorophenyl)ethyl)-2-(5,6-dimethyl-1H-benzo[d]imidazol-1-yl)acetamide]: the inhibition at 6 µM in data set [1] (setting [3]) stood at 0%. In data set [2], the CC50 at 5 days stood at 12 µM. In the case of `O=C(Cc1c[nH]c2ccc(F)cc12)NC(Cc1cc(F)cc(F)c1)c1ncoc1-c1ccc(Cl)cc1` (stereo not shown) [Compound 37, N-(1-(5-(4-chlorophenyl)oxazol-4-yl)-2-(3,5-difluorophenyl)ethyl)-2-(5-fluoro-1H-indol-3-yl)acetamide], the inhibition at 6 µM in data set [1] (setting [4]) is 0%. In data set [2], the CC50 at 5 days was determined as 10.2 µM. In the case of `O=C(Cc1c[nH]c2ccc(F)cc12)N[C@@H](Cc1cc(F)cc(F)c1)c1nnc(-c2ccccc2)o1` [Compound 17B, (S)—N-(2-(3,5-difluorophenyl)-1-(5-phenyl-1,3,4-oxadiazol-2-yl)ethyl)-2-(5-fluoro-1H-indol-3-yl)acetamide], the inhibition at 6 µM in data set [1] (setting [3]) is 0%. Further, in data set [2], the 50% cytotoxic concentration (CC50) at 5 days is more than 53 µM. `O=C(Cn1nc(C(F)(F)F)c2c1CCCC2)N[C@@H](Cc1ccccc1)c1nccn1-c1ccccc1` [Compound 1E, (S)—N-(2-phenyl-1-(1-phenyl-1H-imidazol-2-yl)ethyl)-2-(3-(trifluoromethyl)-4,5,6,7-tetrahydro-1H-indazol-1-yl)acetamide]: the inhibition at 6 µM in data set [1] (setting [3]) amounted to 83%. The compound also returned a half-maximal cytotoxic concentration (CC50) at 5 days in data set [2] of 21.9 µM. In the case of `O=C(Cc1c[nH]c2ccc(O)nc12)NC(Cc1cc(F)cc(F)c1)c1cnc(-c2ccc(Cl)cc2)o1` (stereo not shown) [Compound 22, N-(1-(2-(4-chlorophenyl)oxazol-5-yl)-2-(3,5-difluorophenyl)ethyl)-2-(5-hydroxy-1H-pyrrolo[3,2-b]pyridin-3-yl)acetamide], the inhibition at 6 µM in data set [1] (setting [4]) worked out at 1%. In data set [2], this compound had a CC50 at 5 days of 50.7 µM. For the compound `COc1ccc2[nH]cc(CC(=O)NC(Cc3cc(F)cc(F)c3)c3cnc(-c4ccc(Cl)cc4)o3)c2n1` (stereo not shown) [Compound 21, N-(1-(2-(4-chlorophenyl)oxazol-5-yl)-2-(3,5-difluorophenyl)ethyl)-2-(5-methoxy-1H-pyrrolo[3,2-b]pyridin-3-yl)acetamide], in data set [1] (setting [4]), the inhibition at 6 µM was determined as 2%. The compound further returned a half-maximal cytotoxic concentration (CC50) at 5 days in data set [2] of 25.4 µM. With `Cn1cnc(C(Cc2cc(F)cc(F)c2)NC(=O)Cc2c[nH]c3ccc(O)cc23)c1-c1ccc(Cl)cc1` (stereo not shown) [Compound 31, N-(1-(5-(4-chlorophenyl)-1-methyl-1H-imidazol-4-yl)-2-(3,5-difluorophenyl)ethyl)-2-(5-hydroxy-1H-indol-3-yl)acetamide], the inhibition at 6 µM in data set [1] (setting [3]) worked out at 75%. `Cn1cnc(C(Cc2cc(F)cc(F)c2)NC(=O)Cc2c[nH]c3ccc(C(F)(F)F)cc23)c1-c1ccc(Cl)cc1` (stereo not shown) [Compound 32, N-(1-(5-(4-chlorophenyl)-1-methyl-1H-imidazol-4-yl)-2-(3,5-difluorophenyl)ethyl)-2-(5-(trifluoromethyl)-1H-indol-3-yl)acetamide]: the inhibition at 6 µM in data set [1] (setting [4]) amounted to 0%. This compound registered a 50% cytotoxic concentration (CC50) at 5 days in data set [2] of 11.9 µM. Taken in the same sequence, the figures for `O=C(Cc1c[nH]c2ccc(O)cc12)NC(Cc1cc(F)cc(F)c1)c1cnc(-c2ccc(Cl)cc2)o1` (stereo not shown) [Compound 24, N-(1-(2-(4-chlorophenyl)oxazol-5-yl)-2-(3,5-difluorophenyl)ethyl)-2-(5-hydroxy-1H-indol-3-yl)acetamide] were 5% and 13.6 µM. As for `Cc1ccccc1-c1scnc1C(Cc1cc(F)cc(F)c1)NC(=O)Cc1c[nH]c2ccc(O)cc12` (stereo not shown) [Compound 13E, N-(2-(3,5-difluorophenyl)-1-(5-(o-tolyl)thiazol-4-yl)ethyl)-2-(5-hydroxy-1H-indol-3-yl)acetamide], the inhibition at 6 µM in data set [1] (setting [3]) stood at 93%. Turning to `COc1ccc(-n2ccnc2[C@@H](Cc2cc(F)cc(F)c2)NC(=O)Cc2c[nH]c3ccc(O)cc23)cc1` [Compound 8, (R)—N-(2-(3,5-difluorophenyl)-1-(1-(4-methoxyphenyl)-1H-imidazol-2-yl)ethyl)-2-(5-hydroxy-1H-indol-3-yl)acetamide], the inhibition at 6 µM in data set [1] (setting [3]) came to 6%. In the case of `Cc1cc2ncn(CC(=O)NC(Cc3cc(F)cc(F)c3)c3ncoc3-c3ccc(Cl)cc3)c2cc1C` (stereo not shown) [Compound 33H, N-(1-(5-(4-chlorophenyl)oxazol-4-yl)-2-(3,5-difluorophenyl)ethyl)-2-(5,6-dimethyl-1H-benzo[d]imidazol-1-yl)acetamide], the CC50 at 5 days in data set [2] was 31.8 µM.

Regarding `O=C(Cc1c[nH]c2ccc(O)cc12)N[C@@H](Cc1cc(F)cc(F)c1)c1nocc1-c1ccc(Cl)cc1` [Compound 26, (S)—N-(1-(4-(4-chlorophenyl)isoxazol-3-yl)-2-(3,5-difluorophenyl)ethyl)-2-(5-hydroxy-1H-indol-3-yl)acetamide], the inhibition at 6 µM in data set [1] (setting [3]) amounted to 106%.
